Laboratory results reported in article PMC11181022, “The molecular architecture of Lactobacillus S-layer: Assembly and attachment to teichoic acids” (Proceedings of the National Academy of Sciences of the …, 2024).

Molecular target: T1, SlpA_amy_III (SlpA_amy_D3) (Lactobacillus amylovorus, UniProt E4SK47)
T1 construct: gene LA2_00970; His-tagged, 15N-labelled, expressed in E. coli BL21 DE
T1 sequence (E4SK47 322-456): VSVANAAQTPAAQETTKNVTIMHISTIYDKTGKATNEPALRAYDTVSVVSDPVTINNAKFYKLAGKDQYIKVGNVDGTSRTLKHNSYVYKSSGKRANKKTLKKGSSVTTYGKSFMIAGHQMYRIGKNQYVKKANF
Experiment: 1H-15N HSQC NMR titration, mean Kd of per-residue shift fits
Conditions: 20 mM ADA, 50 mM NaCl, pH 6.5, 25 C, two binding areas TAB1 and TAB2

Row | Substance | Kd (200 uM protein) | Kd (300 uM protein)
1 | GroP pentamer | 500 µM | 
2 | GroP trimer |  | 3500 µM
